Assay results reported in PubChem BioAssay (NCI).
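Tested at 5 concentrations; 48 h exposure; 96-well plates; endpoints linearly interpolated, else capped at highest concentration. GI50 is the concentration that inhibits growth by half. The concentration for full growth arrest is given as TGI.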

Key:
Test in all cases: inhibition of tumour cell growth, NCI panel, 48 h
[1] = system: MALME-3M melanoma
[2] = system: LOX IMVI melanoma
[3] = system: NCI-H460 lung
[4] = system: EKVX NSCLC
[5] = system: MDA-MB-231 breast
[6] = system: HT29 colon
[7] = system: K-562 leukemia
[8] = system: CCRF-CEM leukemia
[9] = system: 786-0 renal
[10] = system: HS 578T breast
[11] = system: SN12C renal
[12] = system: UACC-62 melanoma
[13] = system: RXF 393 renal
[14] = system: MCF7 breast
[15] = system: OVCAR-8 ovarian
[16] = system: SNB-75 CNS
[17] = system: A498 renal
[18] = system: ACHN renal
[19] = system: SF-539 CNS
[20] = system: HOP-92 NSCLC
[21] = system: SK-MEL-28 melanoma
[22] = system: UO-31 renal
[23] = system: NCI/ADR-RES ovarian
[24] = system: OVCAR-5 ovarian
[25] = system: HCT-116 colon
[26] = system: DU-145 prostate
[27] = system: SF-268 CNS
[28] = system: PC-3 prostate
[29] = system: COLO 205 colon
[30] = system: TK-10 renal
[31] = system: SR leukemia
[32] = system: SK-MEL-2 melanoma
[33] = system: OVCAR-3 ovarian
[34] = system: MDA-MB-435
[35] = system: SK-MEL-5 melanoma
[36] = system: A549 NSCLC
[37] = system: U251 CNS
[38] = system: HL-60(TB) leukemia
[39] = system: NCI-H522 lung
[40] = system: UACC-257 melanoma
[41] = system: KM12 colon
[42] = system: T-47D breast
[43] = system: SW-620 colon
[44] = system: BT-549 breast
[45] = system: OVCAR-4 ovarian
[46] = system: HCT-15 colon
[47] = system: NCI-H23 lung
[48] = system: HOP-62 NSCLC
[49] = system: SF-295 CNS
[50] = system: CAKI-1 renal
[51] = system: M14 melanoma
[52] = system: SK-OV-3 ovarian
[53] = system: IGROV1 ovarian
[54] = system: NCI-H226 lung
[55] = system: RPMI-8226 leukemia
[56] = system: SNB-19 CNS
[57] = system: HCC-2998 colon

COC12C=C/C(=C(/C(=O)OCc3csc(SC)n3)C(=O)CCCCCCCCC3(OC)C=C/C(=C(/C(=O)OCc4cnc(SC)s4)C(=O)CCCCCCCC1)O3)O2 (centres undefined)
GI50 [1]: 3.84 µM | TGI [1]: 39.7 µM | GI50 [2]: 1.2 µM | TGI [2]: 3.53 µM | GI50 [3]: 4.57 µM | TGI [3]: > 100 µM | GI50 [4]: 6.38 µM | TGI [4]: > 100 µM | GI50 [5]: 2.51 µM | TGI [5]: 26.2 µM | GI50 [6]: 4.41 µM | TGI [6]: > 100 µM | GI50 [7]: 3.19 µM | TGI [7]: > 100 µM | GI50 [8]: 0.455 µM | TGI [8]: > 100 µM | GI50 [9]: 4.93 µM | TGI [9]: 26.1 µM | GI50 [10]: 4.52 µM | TGI [10]: 57.6 µM | GI50 [11]: 3.63 µM | TGI [11]: > 100 µM | GI50 [12]: 3.51 µM | TGI [12]: 35.2 µM | GI50 [13]: 1.75 µM | TGI [13]: 3.52 µM | GI50 [14]: 1.13 µM | TGI [14]: > 100 µM | GI50 [15]: 2.08 µM | TGI [15]: 32.4 µM | GI50 [16]: 7.61 µM | TGI [16]: 28.9 µM | GI50 [17]: 2.44 µM | TGI [17]: 21.8 µM | GI50 [18]: 2.51 µM | TGI [18]: 28.9 µM | GI50 [19]: 4.03 µM | TGI [19]: 19.8 µM | GI50 [20]: 12.3 µM | TGI [20]: 32.3 µM | GI50 [21]: 0.955 µM | TGI [21]: > 100 µM | GI50 [22]: 4.96 µM | TGI [22]: > 100 µM | GI50 [23]: 31.3 µM | TGI [23]: > 100 µM | GI50 [24]: 7.63 µM | TGI [24]: > 100 µM | GI50 [25]: 0.439 µM | TGI [25]: 10.9 µM | GI50 [26]: 5.39 µM | TGI [26]: > 100 µM | GI50 [27]: 5.75 µM | TGI [27]: > 100 µM | GI50 [28]: 4.16 µM | TGI [28]: > 100 µM | GI50 [29]: 3.44 µM | TGI [29]: > 100 µM | GI50 [30]: 15.8 µM | TGI [30]: 74.8 µM | GI50 [31]: 2.05 µM | TGI [31]: > 100 µM | GI50 [32]: 3.69 µM | TGI [32]: 16.6 µM | GI50 [33]: 2.74 µM | TGI [33]: > 100 µM | GI50 [34]: 1.68 µM | TGI [34]: 5.32 µM | GI50 [35]: 1.7 µM | TGI [35]: 3.56 µM | GI50 [36]: 4.65 µM | TGI [36]: > 100 µM | GI50 [37]: 3.98 µM | TGI [37]: 43.6 µM | GI50 [38]: 3.1 µM | TGI [38]: > 100 µM | GI50 [39]: 1.5 µM | TGI [39]: 21.1 µM | GI50 [40]: 6.01 µM | TGI [40]: > 100 µM | GI50 [41]: 3.1 µM | TGI [41]: > 100 µM | GI50 [42]: 2.94 µM | TGI [42]: > 100 µM | GI50 [43]: 3.66 µM | TGI [43]: > 100 µM | GI50 [44]: 4.53 µM | TGI [44]: 69.8 µM | GI50 [45]: 3.19 µM | TGI [45]: > 100 µM | GI50 [46]: 17 µM | TGI [46]: > 100 µM | GI50 [47]: 2.5 µM | TGI [47]: > 100 µM | GI50 [48]: 4.48 µM | TGI [48]: 70.6 µM | GI50 [49]: 3.33 µM | TGI [49]: 25.7 µM | GI50 [50]: 70 µM | TGI [50]: > 100 µM | GI50 [51]: 2.62 µM | TGI [51]: > 100 µM | GI50 [52]: 9.06 µM | TGI [52]: > 100 µM | GI50 [53]: 3.89 µM | TGI [53]: 83.6 µM | GI50 [54]: 3.48 µM | TGI [54]: 17.1 µM | GI50 [55]: 0.946 µM | TGI [55]: > 100 µM | GI50 [56]: 8.6 µM | TGI [56]: > 100 µM | GI50 [57]: 2.34 µM | TGI [57]: 5.11 µM
